Assays:
[1] = tested on: NCI-H460 non-small cell lung carcinoma; assay: Cytotoxicity assay, sulphorodamine B test, NCI-H460; format: cell-based; settings: Homo sapiens, NCI-H460; 72 h, sulphorodamine B
Description: (§1) The antiproliferative activity of novel Hsp90 inhibitors was also evaluated on various cancerous cell lines by means of the sulphorodamine B test (i.e., NCI-H460 non-small cell lung carcinoma, A431 epidermoid, A2780 ovarian, MDA-MB436 triple-negative breast, U87MG glioblastoma, A498 renal, HCT116 colon, MeWo melanoma, MiaPaCa2 pancreas, HeLa cervix uteri, NB4 promyelocytic leukemia). NCI-H460, A431, MDA-MB436, A2780, A498, HeLa, NB4 tumour cells were grown in RPMI 1640 containing 10% fetal bovine serum (i.e., FBS from GIBCO), L-glutamine, and 50 μg/ml gentamycin sulfate.
(§2) All cell lines were maintained in a 37° C. incubator with saturated humidity and an atmosphere containing 95% air and 5% CO2, and were sub-cultured every 2-3 days. Tumour cells were seeded in 96-well tissue culture plates at approximately 10% confluence and were allowed to attach and recover for 24 h.
(§3) Varying concentrations of the drugs were then added to each well to calculate their IC50 value (the concentration which inhibits the 50% of cell survival). The plates were incubated at 37° C. for 72 h. At the end of the treatment, the plates were washed by remotion of the supernatant and addition of PBS 3 times. 200 μl PBS and 50 μl of cold 80% trichloroacetic acid (TCA) were added. The plates were incubated on ice for at least 1 h. TCA was removed, the plates were washed 3 times by immersion in distilled-water and dried on paper and at 40° C. for […]. Then 200 μl of 0.4% sulphorodamine B in 1% acetic acid were added. The plates were incubated at room temperature for 30 min. Sulphorodamine B was removed, the plates were washed by immersion in 1% acetic acid for 3 times, then they were dried on paper and at 40° C. for 5 min. Then, 200 μl Tris 10 mM were added, the plates were kept under stirring for 20 min. The cell survival was determined as optical density by a Multiskan […] at 540 nm. The amount of cells killed was calculated as the percentage decrease in sulphorodamine B binding compared with control cultures.

[2] = biological target: T1, Hsp90 (Homo sapiens, UniProt P07900); assay: Fluorescence Polarization (FP) binding, GM-BODIPY displacement from Hsp90; settings: GM-BODIPY tracer, 4° C. for 4 hours
T1 construct: purchased Stressgen SPP-776
Description: GM-BODIPY (PerkinElmer, CUSN60342000MG) was previously dissolved in DMSO to obtain 10 mM stock solutions and kept at −20° C. until use.
Hsp90 (Stressgen, SPP-776), was previously dissolved in assay buffer (HFB) to form 2.2 μM stock solutions and kept at −80° C. until use.
The compounds were previously dissolved in DMSO to obtain stock solutions and kept at −20° C. The day of experiment, the compounds were prepared by serial dilutions in assay buffer (HFB) containing 20 mM HEPES (K) pH 7.3, 50 mM KCl, 5 mM MgCl2, 20 mM Na2MoO4 and 0.01% NP40. Before each use, 0.1 mg/ml Bovine Gamma globulin and 2 mM DTT were freshly added.
Fluorescence Polarization (FP) was performed in Opti-Plate™-96F well plates (Perkin Elmer, Zaventem, Belgium) using a plate reader (Wallac Envision 2101 multilabel reader, Perkin Elmer, Zaventem, Belgium). To evaluate the binding affinity of the molecules, 50 μl of the GM-BODIPY solution (100 nM) were added to 125 nM of Hsp90 in the presence of 5 μl of the test compounds at increasing concentrations. The plate was mixed on a shaker at 4° C. for 4 hours, and the FP values in mP (millipolarization units) were recorded. The IC50 values were calculated as the inhibitor concentration where 50% of the tracer is displaced; each data point is the result of the average of triplicate wells, and was determined from a plot using nonlinear least-squares analysis. Curve fitting was performed using
Prism GraphPad software program (GraphPad software, Inc., San Diego, Calif.).

[3] = tested on: A498 renal; assay: Sulphorodamine B test at single concentration, A498; format: cell-based; settings: Homo sapiens, 500 nM, 72 h
Description: as §1, §2, §3
(§4) The other cell lines were screened against one single concentration of the various inhibitors (i.e., 500 nM), all experiments being made in octuplicate, following the protocol described at example 35. Since NB4 cell line was grown in suspension, a further step of centrifugation (i.e., 1600 g for 10 min) was added after the 72 hour incubation period.

[4] = tested on: MeWo melanoma; assay: Sulphorodamine B test at single concentration, MeWo; format: cell-based; settings: Homo sapiens, 500 nM, 72 h
Description: as §1
(§5) MeWo and U87-MG cells were cultured in Eagle's Minimum Essential Medium (i.e., EMEM) containing 10% FBS, L-glutamine, 1 mM sodium pyruvate, 0.1 mM non-essential amino acids, 1.5 g/l sodium bicarbonate, and 50 μg/ml gentamycin sulphate.
as §2, §3, §4

[5] = tested on: HeLa cervix uteri; assay: Sulphorodamine B test at single concentration, HeLa; format: cell-based; settings: Homo sapiens, 500 nM, 72 h
Description: as §1, §2, §3, §4

[6] = tested on: A431 epidermoid; assay: Sulphorodamine B test at single concentration, A431; format: cell-based; settings: Homo sapiens, A-431; 500 nM, 72 h
Description: as §1, §2, §3, §4

[7] = tested on: HCT116 colon; assay: Sulphorodamine B test at single concentration, HCT116; format: cell-based; settings: Homo sapiens, HCT-116; 500 nM, 72 h
Description: as §1
HCT116 cells were cultured in McCoy's medium containing 10% FBS, L-glutamine, and 50 μg/ml gentamycin sulfate.
as §2, §3, §4

[8] = tested on: MiaPaCa2 pancreas; assay: Sulphorodamine B test at single concentration, MiaPaCa2; format: cell-based; settings: Homo sapiens, MIA PaCa-2; 500 nM, 72 h
Description: as §1
MiaPaCa2 cells were cultured in DMEM medium containing 10% FBS, L-glutamine, and 50 μg/ml gentamycin sulfate.
as §2, §3, §4

[9] = tested on: MDA-MB436 triple-negative breast; assay: Sulphorodamine B test at single concentration, MDA-MB436; format: cell-based; settings: Homo sapiens, MDA-MB-436; 500 nM, 72 h
Description: as §1, §2, §3, §4

[10] = tested on: NB4 promyelocytic leukemia; assay: Sulphorodamine B test at single concentration, NB4; format: cell-based; settings: 500 nM, 72 h, suspension cells
Description: as §1, §2, §3, §4

[11] = tested on: A2780 ovarian; assay: Sulphorodamine B test at single concentration, A2780; format: cell-based; settings: Homo sapiens, 500 nM, 72 h
Description: as §1, §2, §3, §4

[12] = tested on: U87MG glioblastoma; assay: Sulphorodamine B test at single concentration, U87MG; format: cell-based; settings: Homo sapiens, U-87 MG; 500 nM, 72 h
Description: as §1, §5, §2, §3, §4

SMILES | IC50 [1] [nM] | IC50 [2] [nM] | inhibition at 0.5 µM [8] [%] | inhibition at 0.5 µM [11] [%] | further results
CC(C)c1cc(-n2nncc2-c2ccc(CN3CCOCC3)cc2)c(O)cc1O [Example 1] | 100 to 500 | < 50 | – | – | –
CC(C)c1cc(-n2nncc2-c2ccc(CN3CCN(Cc4ccccc4)CC3)cc2)c(O)cc1O [Example 3, 4-{5-[4-(4-benzyl-piperazin-1-ylmethyl)-phenyl]-[1,2,3]triazol-1-yl}-6-isopropyl-benzene-1,3-diol] | 100 to 500 | < 50 | ≥ 50 | ≥ 50 | inhibition at 0.5 µM [3]: 30 to 50%; inhibition at 0.5 µM [4]: ≥ 50%; inhibition at 0.5 µM [5]: ≥ 50%; inhibition at 0.5 µM [6]: ≥ 50%; inhibition at 0.5 µM [7]: ≥ 50%; inhibition at 0.5 µM [9]: ≥ 50%; inhibition at 0.5 µM [10]: ≥ 50%
CC(C)c1cc(-n2nncc2-c2ccc(CN3CCN(c4ccccc4)CC3)cc2)c(O)cc1O [Example 4, 4-isopropyl-6-{5-[4-(4-phenyl-piperazin-1-ylmethyl)-phenyl]-[1,2,3]triazol-1-yl}-benzene-1,3-diol] | 500 to 1000 | < 50 | – | – | –
CCNC(=O)c1nnn(-c2cc(C(C)C)c(O)cc2O)c1-c1ccc(CN(CC)CC)cc1 [Example 10, 5-(4-diethylaminomethyl-phenyl)-1-(2,4-dihydroxy-5-isopropyl-phenyl)-1H-[1,2,3]triazole-4-carboxylic acid ethylamide] | < 50 | < 50 | – | – | –
CCNC(=O)c1nnn(-c2cc(C(C)C)c(O)cc2O)c1-c1ccc(CN2CCNCC2)cc1 [Example 12, 1-(2,4-dihydroxy-5-isopropyl-phenyl)-5-(4-piperazin-1-ylmethyl-phenyl)-1H-[1,2,3]triazole-4-carboxylic acid ethylamide] | 100 to 500 | < 50 | ≥ 50 | ≥ 50 | inhibition at 0.5 µM [3]: 30 to 50%; inhibition at 0.5 µM [9]: ≥ 50%
CCNC(=O)c1nnn(-c2cc(C(C)C)c(O)cc2O)c1-c1ccc(CN2CCC(N(C)C)CC2)cc1 [Example 13, 1-(2,4-dihydroxy-5-isopropyl-phenyl)-5-[4-(4-dimethylamino-piperidin-1-ylmethyl)-phenyl]-1H-[1,2,3]triazole-4-carboxylic acid ethylamide] | 100 to 500 | < 50 | ≥ 50 | ≥ 50 | inhibition at 0.5 µM [3]: 30 to 50%; inhibition at 0.5 µM [4]: ≥ 50%; inhibition at 0.5 µM [5]: 30 to 50%; inhibition at 0.5 µM [6]: ≥ 50%; inhibition at 0.5 µM [12]: ≥ 50%; inhibition at 0.5 µM [7]: ≥ 50%; inhibition at 0.5 µM [9]: ≥ 50%
CCNC(=O)c1nnn(-c2cc(C(C)C)c(O)cc2O)c1-c1ccc(CNCCN2CCOCC2)cc1 [Example 14, 1-(2,4-dihydroxy-5-isopropyl-phenyl)-5-{4-[(2-morpholin-4-yl-ethylamino)-methyl]-phenyl}-1H-[1,2,3]triazole-4-carboxylic acid ethylamide] | 100 to 500 | < 50 | ≥ 50 | ≥ 50 | inhibition at 0.5 µM [4]: ≥ 50%; inhibition at 0.5 µM [6]: ≥ 50%; inhibition at 0.5 µM [12]: ≥ 50%; inhibition at 0.5 µM [7]: 30 to 50%; inhibition at 0.5 µM [9]: ≥ 50%
CCNC(=O)c1nnn(-c2cc(C(C)C)c(O)cc2O)c1-c1ccc(CNC2CCCCC2)cc1 [Example 16, 5-(4-cyclohexylaminomethyl-phenyl)-1-(2,4-dihydroxy-5-isopropyl-phenyl)-1H-[1,2,3]triazole-4-carboxylic acid ethylamide] | < 50 | < 50 | – | – | –
CCNC(=O)c1nnn(-c2cc(C(C)C)c(O)cc2O)c1-c1ccc(CNCCCN(CC)CC)cc1 [Example 18, 5-{4-[(3-diethylamino-propylamino)-methyl]-phenyl}-1-(2,4-dihydroxy-5-isopropyl-phenyl)-1H-[1,2,3]triazole-4-carboxylic acid ethylamide] | 500 to 1000 | < 50 | – | – | –
CCNC(=O)c1nnn(-c2cc(C(C)C)c(O)cc2O)c1-c1ccc(CNC2CCN(C)CC2)cc1 [Example 19, 1-(2,4-dihydroxy-5-isopropyl-phenyl)-5-{4-[(1-methyl-piperidin-4-ylamino)-methyl]-phenyl}-1H-[1,2,3]triazole-4-carboxylic acid ethylamide] | – | < 50 | – | – | –
CC(C)c1cc(-n2nncc2Nc2ccc(N3CCOCC3)cc2)c(O)cc1O [Example 23, 4-isopropyl-6-[5-(4-morpholin-4-yl-phenylamino)-[1,2,3]triazol-1-yl]-benzene-1,3-diol] | – | 50 to 100 | – | – | –
CC(C)c1cc(-n2nncc2NCc2ccc(N3CCOCC3)cc2)c(O)cc1O [Example 24, 4-isopropyl-6-[5-(4-morpholin-4-yl-benzylamino)-[1,2,3]triazol-1-yl]-benzene-1,3-diol] | – | 100 to 500 | – | – | –
CCNC(=O)c1nnn(-c2cc(C(C)C)c(O)cc2O)c1Nc1ccc(N2CCOCC2)cc1 [Example 25, 1-(2,4-dihydroxy-5-isopropyl-phenyl)-5-(4-morpholin-4-yl-phenylamino)-1H-[1,2,3]triazole-4-carboxylic acid ethylamide] | 500 to 1000 | 50 to 100 | – | – | –
CCNC(=O)c1nnn(-c2cc(C(C)C)c(O)cc2O)c1NCc1ccc(N2CCOCC2)cc1 [Example 26, 1-(2,4-dihydroxy-5-isopropyl-phenyl)-5-(4-morpholin-4-yl-benzylamino)-1H-[1,2,3]triazole-4-carboxylic acid ethylamide] | 100 to 500 | < 50 | ≥ 50 | ≥ 50 | inhibition at 0.5 µM [3]: ≥ 50%; inhibition at 0.5 µM [4]: 30 to 50%; inhibition at 0.5 µM [7]: ≥ 50%; inhibition at 0.5 µM [10]: 30 to 50%
CC(C)c1cc(-n2nnc(C(=O)N3CCOCC3)c2-c2ccc(CN3CCOCC3)cc2)c(O)cc1O [Example 30, [1-(2,4-dihydroxy-5-isopropyl-phenyl)-5-(4-morpholin-4-ylmethyl-phenyl)-1H-[1,2,3]triazol-4-yl]-morpholin-4-yl-methanone] | – | 100 to 500 | – | – | –
CC(C)c1cc(-n2nnc(C(=O)N[C@H](C(=O)O)C(C)C)c2-c2ccc(CN3CCOCC3)cc2)c(O)cc1O [Example 31, (S)-2-{[1-(2,4-dihydroxy-5-isopropyl-phenyl)-5-(4-morpholin-4-ylmethyl-phenyl)-1H-[1,2,3]triazole-4-carbonyl]-amino}-3-methyl-butyric acid] | – | 100 to 500 | – | – | –

From US9302998B2, “Aryl triazole compounds with antitumoural activity” (SIGMA-TAU RESEARCH SWITZERLAND S.A., priority 2010, dated 2016)
